Reference: US20160318987A1 (MEDIMMUNE LIMITED, priority 2013, published 2016)
“Also recorded” adds a separate entry of the source. Where a SMILES comes first, the peptide text is derived from it. [ ]: non-standard residue; d: D form. The star is where a group is joined. Palmitoyl = CCCCCCCCCCCCCCCC(=O)*; αMeF = C[C@](N)(Cc1ccccc1)C(=O)O; αMeK = C[C@](N)(CCCCN)C(=O)O; αMeV = CC(C)[C@](C)(N)C(=O)O; Aib = CC(C)(N)C(=O)O

Tests used:
[1] = molecular target: T1, Chymotrypsin (rhCTRC) (Homo sapiens, UniProt Q99895); experiment: chymotrypsin stability study (LC/MS); format: in vitro ADME; details: for Chymotrypsin cleavage/liability (Discussion / Description): Table 2 description
T1 construct: purchased R&D Systems 6907-SE-010
T1 sequence (Q99895 30-268): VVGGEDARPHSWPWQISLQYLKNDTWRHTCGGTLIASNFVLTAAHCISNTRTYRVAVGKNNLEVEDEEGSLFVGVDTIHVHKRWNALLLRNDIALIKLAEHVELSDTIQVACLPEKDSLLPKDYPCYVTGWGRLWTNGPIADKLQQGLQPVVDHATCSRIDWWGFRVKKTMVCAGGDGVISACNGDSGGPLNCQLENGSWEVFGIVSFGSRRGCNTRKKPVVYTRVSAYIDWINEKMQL
Experimental: (§1) Peptides for evaluation were prepared to a concentration of 1.0 mg/mL solutions in either pure water, sterile saline for injection (0.9% w/v NaCl/water) or 1× PBS (Dulbecco). 100 μL (100 μg/mL peptide) of these solutions was added to 900 μL of each protease solution. Additional experiments were performed examining protein degradation during exposure to serum and gastric fluid. For serum studies, peptides were incubated with 50% female Sprague-Dawley strain rat serum (SD rat serum). For gastric fluid studies, peptides were incubated 1:1 (volume:volume), fresh rat gastric fluid.
(§2) The peptide and enzyme (or serum or gastric fluid) were co-incubated in a temperature regulated water bath at 37° C. for the duration of the experiment. During each experiment 100 μL aliquots (10 μg peptide) of the incubated peptide-enzyme mixture were withdrawn periodically, quenched by addition of an equal volume of 5% TFA (v/v) in 1:1 water/acetonitrile to arrest proteolytic activity, and analyzed by liquid chromatography-mass spectrometry (LC/MS): Agilent Polaris C8-A column (4.6×100 mm, 3 micron) using a linear binary gradient of 10-90% MeCN (0.1% TFA v/v) in water (0.1% TFA v/v) over 30 minutes at 1.5 mL min^−1 at ambient temperature. Analytes were detected by both UV absorption at 210 nm and ionization using a Waters 3100 mass detector (ESI^+ mode). New peptidic species (fragments) derived from enzymatic cleavage of peptides were analyzed post-process, and their molecular masses were used to identify the precise cleavage position (highlighting the scissile bond in each case).

[2] = molecular target: T2, hGIP-R (Homo sapiens, UniProt P48546); experiment: cAMP functional assay, cells expressing human GIP receptor (primary assay); format: cell-based; details: n = 2
T2 construct: expressed in transfected cells
T2 sequence (P48546 22-466): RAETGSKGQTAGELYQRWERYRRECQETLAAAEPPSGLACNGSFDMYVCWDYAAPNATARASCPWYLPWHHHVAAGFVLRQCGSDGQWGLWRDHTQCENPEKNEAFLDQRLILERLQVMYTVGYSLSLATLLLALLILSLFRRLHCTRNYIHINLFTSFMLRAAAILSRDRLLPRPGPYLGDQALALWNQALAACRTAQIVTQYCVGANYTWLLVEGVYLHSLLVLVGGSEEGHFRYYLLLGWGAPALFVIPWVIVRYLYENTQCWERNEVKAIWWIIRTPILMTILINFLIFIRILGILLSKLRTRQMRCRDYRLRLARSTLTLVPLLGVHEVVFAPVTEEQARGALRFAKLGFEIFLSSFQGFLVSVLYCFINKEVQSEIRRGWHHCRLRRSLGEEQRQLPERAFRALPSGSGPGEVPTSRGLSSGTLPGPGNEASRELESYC

[3] = molecular target: T3, hGLP-1R (Homo sapiens, UniProt P43220); experiment: cAMP functional assay, cells expressing human GLP-1 receptor (primary assay); format: cell-based; details: n = 2
T3 construct: expressed in transfected cells
T3 sequence (P43220 24-463): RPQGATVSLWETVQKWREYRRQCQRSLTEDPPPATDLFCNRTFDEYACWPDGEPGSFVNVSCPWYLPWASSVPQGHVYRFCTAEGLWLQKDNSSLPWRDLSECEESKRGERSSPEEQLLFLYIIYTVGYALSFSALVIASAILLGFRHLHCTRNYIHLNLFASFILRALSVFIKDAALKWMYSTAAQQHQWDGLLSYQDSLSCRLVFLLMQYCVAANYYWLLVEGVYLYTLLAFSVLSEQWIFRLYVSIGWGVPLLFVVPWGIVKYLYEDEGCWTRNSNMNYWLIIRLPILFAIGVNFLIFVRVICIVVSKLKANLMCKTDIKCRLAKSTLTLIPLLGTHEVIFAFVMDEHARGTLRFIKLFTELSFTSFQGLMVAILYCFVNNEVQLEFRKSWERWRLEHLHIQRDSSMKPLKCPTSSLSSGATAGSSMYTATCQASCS

[4] = molecular target: T4, trypsin from porcine pancreas (Sus scrofa, UniProt P00761); experiment: trypsin stability study (LC/MS); format: in vitro ADME
T4 construct: purchased Sigma P7409; host or cells: porcine pancreas
T4 sequence (P00761 9-231): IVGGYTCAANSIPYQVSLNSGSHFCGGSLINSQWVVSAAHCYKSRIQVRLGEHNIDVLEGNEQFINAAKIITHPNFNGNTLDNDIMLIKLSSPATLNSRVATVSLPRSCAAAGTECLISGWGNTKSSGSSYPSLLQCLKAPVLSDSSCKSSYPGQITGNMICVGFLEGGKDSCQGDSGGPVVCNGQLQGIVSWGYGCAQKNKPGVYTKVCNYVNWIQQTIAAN
Experimental: as §1, §2

[5] = molecular target: T5, Neprilysin (rhNEP) (Homo sapiens, UniProt P08473); experiment: neprilysin stability study (LC/MS); format: in vitro ADME; details: Table 2 description
T5 construct: purchased R&D Systems 1182-ZNC-010
T5 sequence (P08473 52-750 limits assumed): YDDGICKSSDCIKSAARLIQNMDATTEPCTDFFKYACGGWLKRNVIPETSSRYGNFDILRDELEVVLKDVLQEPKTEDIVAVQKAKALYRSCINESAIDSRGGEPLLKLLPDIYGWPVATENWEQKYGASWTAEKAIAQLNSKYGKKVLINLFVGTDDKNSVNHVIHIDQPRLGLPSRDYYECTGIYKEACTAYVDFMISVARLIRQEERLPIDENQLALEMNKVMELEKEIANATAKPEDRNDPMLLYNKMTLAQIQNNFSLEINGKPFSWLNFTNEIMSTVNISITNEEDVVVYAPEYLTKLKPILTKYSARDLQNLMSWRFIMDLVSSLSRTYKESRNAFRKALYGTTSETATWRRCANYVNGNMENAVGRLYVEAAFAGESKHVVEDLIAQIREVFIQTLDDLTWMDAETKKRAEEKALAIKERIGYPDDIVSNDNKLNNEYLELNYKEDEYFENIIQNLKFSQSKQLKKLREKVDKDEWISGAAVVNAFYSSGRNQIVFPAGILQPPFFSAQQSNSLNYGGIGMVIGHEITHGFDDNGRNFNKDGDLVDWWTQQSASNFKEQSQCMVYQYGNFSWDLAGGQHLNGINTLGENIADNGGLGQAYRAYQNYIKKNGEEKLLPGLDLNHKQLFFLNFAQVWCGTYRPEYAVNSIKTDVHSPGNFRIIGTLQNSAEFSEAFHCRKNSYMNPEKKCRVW
Experimental: as §1, §2

[6] = molecular target: T6, hGluc-R (Homo sapiens, UniProt P47871); experiment: cAMP functional assay, cells expressing human glucagon receptor (primary assay); format: cell-based; details: n = 2
T6 construct: expressed in transfected cells
T6 sequence (P47871 26-477): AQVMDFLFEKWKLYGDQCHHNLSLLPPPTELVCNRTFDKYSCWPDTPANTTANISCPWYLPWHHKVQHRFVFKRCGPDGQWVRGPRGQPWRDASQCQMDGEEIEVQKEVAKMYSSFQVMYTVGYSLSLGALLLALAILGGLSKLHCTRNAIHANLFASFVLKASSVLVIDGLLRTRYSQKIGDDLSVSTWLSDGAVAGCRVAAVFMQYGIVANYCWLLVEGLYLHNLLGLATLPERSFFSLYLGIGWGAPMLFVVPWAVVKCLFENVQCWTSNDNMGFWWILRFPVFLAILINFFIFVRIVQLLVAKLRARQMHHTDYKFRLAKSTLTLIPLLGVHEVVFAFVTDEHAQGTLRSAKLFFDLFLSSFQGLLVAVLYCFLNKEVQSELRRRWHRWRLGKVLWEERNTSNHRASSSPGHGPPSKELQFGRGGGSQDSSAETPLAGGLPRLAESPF

[7] = system: DPP-IV, Neprilysin, Chymotrypsin, Trypsin, Pepsin; experiment: enzyme resistance, protease panel (Table 2 description); format: in vitro ADME
Experimental: as §1, §2

[8] = gastric fluid stability study (LC/MS); format: in vitro ADME, rat
Experimental: as §1, §2

[9] = system: Chymotrypsin (rhCTRC); experiment: 1.0 μg rhCTRC in 900 μL assay buffer: 50 mM Tris, 10 mM CaCl2, 150 mM NaCl, 1 mM HCl, pH 7.8; details: 37° C., up to over 60 hours
[10] = system: Trypsin; experiment: 1 mg/mL lyophilized trypsin from porcine pancreas in 50 mM Tris, 10 mM CaCl2, 150 mM NaCl, 1 mM HCl, pH 7.8; details: 37° C., up to over 18 hours
[11] = system: Neprilysin (Neutral endopeptidase, rhNEP); experiment: 1.0 μg rhNEP in 900 μL assay buffer: 50 mM Tris, 50 mM NaCl, 50 mM NaHCO3, pH 8.3; details: 37° C., up to 240 hours

| Chymotrypsin cleavage/liability (Discussion / Description) [1] | EC50 [2] [nM] | EC50 [3] [nM] | EC50 [6] [nM] | Molecule | further results |
| --- | --- | --- | --- | --- | --- |
| MeVal^27 overcomes | 102 | 0.0546 |  | CC[C@H](C)[C@H](NC(=O)[C@](C)(Cc1ccccc1)NC(=O)[C@H](CCC(=O)O)NC(=O)[C@H](CCCCN)NC(=O)[C@H](C)NC(=O)[C@H](C)NC(=O)[C@H](CCC(N)=O)NC(=O)CNC(=O)[C@H](CCC(=O)O)NC(=O)[C@H](CC(C)C)NC(=O)[C@](C)(Cc1ccccc1)NC(=O)[C@H](CO)NC(=O)[C@H](CO)NC(=O)[C@@H](NC(=O)[C@H](CC(=O)O)NC(=O)[C@H](CO)NC(=O)[C@@H](NC(=O)[C@](C)(Cc1ccccc1)NC(=O)[C@H](CO)NC(=O)CNC(=O)[C@H](CCC(=O)O)NC(=O)C(C)(C)NC(=O)[C@@H](N)Cc1c[nH]cn1)[C@@H](C)O)C(C)C)C(=O)N[C@@H](C)C(=O)N[C@@](C)(Cc1ccccc1)C(=O)N[C@@H](CC(C)C)C(=O)N[C@](C)(C(=O)N[C@@H](CCCCN)C(=O)NCC(=O)N[C@@H](CCCNC(=N)N)C(N)=O)C(C)C [SEQ ID NO: 41, H-(Aib)^2-EG-(S)^5-(α-MeF)^6-TSDV^10 SS-(α-MeF)^13-LE^15 GQAAK^20 E-(α-MeF)^22-IA-(α-MeF)^25 L-(α-MeV)^27-KGR^30] (H-H[Aib]EGS[αMeF]TSDVSS[αMeF]LEGQAAKE[αMeF]IA[αMeF]L[αMeV]KGR-NH2) |  |
|  | 103 | 0.0141 | 103 | CC[C@H](C)[C@H](NC(=O)[C@](C)(Cc1ccccc1)NC(=O)[C@H](CCC(=O)O)NC(=O)[C@](C)(CCCCN)NC(=O)[C@H](C)NC(=O)[C@H](C)NC(=O)[C@H](CCC(N)=O)NC(=O)CNC(=O)[C@H](CCC(=O)O)NC(=O)[C@H](CC(C)C)NC(=O)[C@](C)(Cc1ccccc1)NC(=O)[C@H](CO)NC(=O)[C@H](CO)NC(=O)[C@@H](NC(=O)[C@H](CC(=O)O)NC(=O)[C@H](CO)NC(=O)[C@@H](NC(=O)[C@](C)(Cc1ccccc1)NC(=O)[C@H](CO)NC(=O)CNC(=O)[C@H](CCC(=O)O)NC(=O)C(C)(C)NC(=O)[C@@H](N)Cc1c[nH]cn1)[C@@H](C)O)C(C)C)C(=O)N[C@@H](C)C(=O)N[C@@](C)(Cc1ccccc1)C(=O)N[C@@H](CC(C)C)C(=O)N[C@H](C(=O)N[C@@](C)(CCCCN)C(=O)NCC(=O)NCC(N)=O)C(C)C [SEQ ID NO: 46, H-(Aib)^2-EG-(S)^5-(α-MeF)^6-TSDV^10 SS-(α-MeF)^13-LE^15 GQAA-(α-MeK)^20 E-(α-MeF)^22-IA-(α-MeF)^25 LV-(α-MeK)^28-G-(G)^30] (H-H[Aib]EGS[αMeF]TSDVSS[αMeF]LEGQAA[αMeK]E[αMeF]IA[αMeF]LV[αMeK]GG-NH2) | Trypsin resistance/susceptibility (Discussion / Description) ([4]; Table 2 description): resistance, maintaining; Neprilysin resistance (Discussion / Description) [5]: resistance, maintaining |
| overcoming Chymotrypsin | 104 | 0.0219 | 104 | CC[C@H](C)[C@H](NC(=O)[C@](C)(Cc1ccccc1)NC(=O)[C@H](CCC(=O)O)NC(=O)[C@](C)(CCCCN)NC(=O)[C@H](C)NC(=O)[C@H](C)NC(=O)[C@H](CCC(N)=O)NC(=O)CNC(=O)[C@H](CCC(=O)O)NC(=O)[C@H](CC(C)C)NC(=O)[C@](C)(Cc1ccccc1)NC(=O)[C@H](CO)NC(=O)[C@H](CO)NC(=O)[C@@H](NC(=O)[C@H](CC(=O)O)NC(=O)[C@H](CO)NC(=O)[C@@H](NC(=O)[C@](C)(Cc1ccccc1)NC(=O)[C@H](CO)NC(=O)CNC(=O)[C@H](CCC(=O)O)NC(=O)C(C)(C)NC(=O)[C@@H](N)Cc1c[nH]cn1)[C@@H](C)O)C(C)C)C(=O)N[C@@H](C)C(=O)N[C@@](C)(Cc1ccccc1)C(=O)N[C@H](C(=O)N[C@H](C(=O)N[C@@](C)(CCCCN)C(=O)NCC(=O)NCC(N)=O)C(C)C)C(C)C [SEQ ID NO: 51, H-(Aib)^2-EG-(S)^5-(α-MeF)^6-TSDV^10 SS-(α-MeF)^13-LE^15 GQAA-(α-MeK)^20 E-(α-MeF)^22-IA-(α-MeF)^25-(V)^26-V-(α-MeK)^28-G-(G)^30] (H-H[Aib]EGS[αMeF]TSDVSS[αMeF]LEGQAA[αMeK]E[αMeF]IA[αMeF]VV[αMeK]GG-NH2) | duration of stability ([4]; trypsin, 37° C.): over 18 hours; duration of stability, no major cleavage products ([1]; chymotrypsin, 37° C.): over 60 hours |
|  | 93.1 | 0.41 | 93.1 | CCCCCCCCCCCCCCCC(=O)NCCCC[C@H](NC(=O)CNC(=O)CNC(=O)[C@](C)(CCCCN)NC(=O)[C@@H](NC(=O)[C@@H](NC(=O)[C@](C)(Cc1ccccc1)NC(=O)[C@H](C)NC(=O)[C@@H](NC(=O)[C@](C)(Cc1ccccc1)NC(=O)[C@H](CCC(=O)O)NC(=O)[C@](C)(CCCCN)NC(=O)[C@H](C)NC(=O)[C@H](C)NC(=O)[C@H](CCC(N)=O)NC(=O)CNC(=O)[C@H](CCC(=O)O)NC(=O)[C@H](CC(C)C)NC(=O)[C@](C)(Cc1ccccc1)NC(=O)[C@H](CO)NC(=O)[C@H](CO)NC(=O)[C@@H](NC(=O)[C@H](CC(=O)O)NC(=O)[C@H](CO)NC(=O)[C@@H](NC(=O)[C@](C)(Cc1ccccc1)NC(=O)[C@H](CO)NC(=O)CNC(=O)[C@H](CCC(=O)O)NC(=O)C(C)(C)NC(=O)[C@@H](N)Cc1c[nH]cn1)[C@@H](C)O)C(C)C)[C@@H](C)CC)C(C)C)C(C)C)C(N)=O [SEQ ID NO: 52, H-(Aib)^2-EG-(S)^5-(α-MeF)^6-TSDV^10 SS-(α-MeF)^13-LE^15 GQAA-(α-MeK)^20 E-(α-MeF)^22-IA-(α-MeF)^25-(V)^26-V-(α-MeK)^28-G-(G)^30-K(Ε-Palm)] (H-H[Aib]EGS[αMeF]TSDVSS[αMeF]LEGQAA[αMeK]E[αMeF]IA[αMeF]VV[αMeK]GGK(Palmitoyl)-NH2) | enzyme resistance (DPP-IV, Neprilysin, Chymotrypsin, Trypsin, Pepsin) [7]: excellent enzyme resistance; stability relative to Liraglutide ([8]; rat gastric fluid 1:1): significantly exceeds; stability relative to lipidated comparator SEQ ID NO: 5 ([8]; rat gastric fluid 1:1): significantly exceeds; spectrum over the time course ([8]; rat gastric fluid, zoomed spectra): virtually unchanged spectrum |
|  |  |  |  | H-(Aib)^2-EG-(S)^5-(α-MeF)^6-TSDV^10 SS-(α-MeF)^13-LE^15 GQAA-(α-MeK)^20 E-(α-MeF)^22-IA-(α-MeF)^25-(V)^26-V-(α-MeK)^28-G-(G)30 | not cleaved [9]: stability for over 60 hours, with no major cleavage products observed; not cleaved [10]: significantly extended stability for over 18 hours |
|  |  |  |  | H-(Aib)^2-EGT^5 FTSDV^10 SSYLE^15 GQAAK^20 EFIAW^25 LVKGR^30 | cleaved bond [10]: Lys20-E21, by 90 minutes; also recorded: Lys28-G29, by 90 minutes; cleaved bond [11]: T5-Phe6; also recorded: S12-Tyr13; also recorded: E21-Phe22; also recorded: A24-Trp25 |
